IC50 data for 10 molecules are collected here from patent US10414775B2 (Merck Sharp & Dohme Corp., priority 2016, dated 2019).

The target of the data set is T1, Human CYP8B1 (Homo sapiens, UniProt Q9UNU6).
T1 construct: tissue Xenotech; host or cells: human liver microsomes
T1 sequence (Q9UNU6 1-501): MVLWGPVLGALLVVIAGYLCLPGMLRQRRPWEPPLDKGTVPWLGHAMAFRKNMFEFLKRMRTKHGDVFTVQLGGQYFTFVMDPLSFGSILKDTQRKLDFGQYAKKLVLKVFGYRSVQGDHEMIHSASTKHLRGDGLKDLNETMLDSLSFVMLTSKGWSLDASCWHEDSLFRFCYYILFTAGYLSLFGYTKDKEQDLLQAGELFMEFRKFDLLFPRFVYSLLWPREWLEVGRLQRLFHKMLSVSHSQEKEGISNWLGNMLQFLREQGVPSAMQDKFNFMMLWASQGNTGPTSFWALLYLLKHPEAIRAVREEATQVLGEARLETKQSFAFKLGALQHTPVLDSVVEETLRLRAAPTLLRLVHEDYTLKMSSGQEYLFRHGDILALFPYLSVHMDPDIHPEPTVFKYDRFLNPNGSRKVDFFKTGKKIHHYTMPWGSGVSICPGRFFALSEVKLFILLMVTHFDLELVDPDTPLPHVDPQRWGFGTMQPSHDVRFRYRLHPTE
Put plainly: Human Cyp8B1 Liver Microsome Assay. Particulars: human liver microsomes; substrate 7α-hydroxy-4-cholesten-3-one, NADPH; 30 min pre-incubation, 45 min reaction; RapidFire MS readout. The class given is biochemical. In outline: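 Human liver microsomes (65 μg/ml, 0.1 M phosphate pH 7.4) preincubated 30 min at room temperature with inhibitor (1.25% DMSO final), then reacted 45 min with 7α-hydroxy-4-cholesten-3-one and NADPH. 7α,12α-dihydroxy product quantified by RapidFire ESI+ MRM against d7 internal standard; IC50 from four-parameter logistic fit.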

What is called IC50 is the midpoint of a concentration-inhibition curve. A higher IC50 goes with weaker potency. As for `Cc1nc2ccc(F)cc2c(N2CC[C@H](C(=O)N3CCn4c(nnc4C(F)(F)F)C3)[C@H](C)C2)c1C` [Example 16, [(3S,4S)-1-(6-fluoro-2,3-dimethylquinolin-4-yl)-3-methylpiperidin-4-yl][3-(trifluoromethyl)-5,6-dihydro[1,2,4]tria-zolo[4,3-a]pyrazin-7(8H)-yl]methanone], the half-maximal inhibitory concentration (IC50) stood at 37 nM. The molecule `C[C@@H]1CN(c2c(Cl)cnc3nc(C(F)(F)F)ccc23)CC[C@@H]1C(=O)N1CCn2c(nnc2C(F)(F)F)C1` [Example 37, {(3S,4S)-1-[3-chloro-7-(trifluoromethyl)-1,8-naphthyridin-4-yl]-3-methylpiperidin-4-yl}[3-(trifluoromethyl)-5,6-dihydro[1,2,4]triazolo[4,3-a]pyrazin-7(8H)-yl]methanone] yielded an IC50 of 1.3 nM. Under `CCNC(=O)c1ccc2c(N3CC[C@H](C(=O)N4CCn5c(nnc5C(F)(F)F)C4)[C@H](C)C3)ccnc2c1` [Example 69, N-ethyl-4-((3S,4S)-3-methyl-4-(3-(trifluoromethyl)-5,6,7,8-tetrahydro-[1,2,4]triazolo [4,3-a]pyrazine-7-carbonyl)piperidin-1-yl) quinoline-7-carboxamide] stands 368 nM.

Consider `C[C@@H]1CN(c2ccnc3c(Cl)c(Cl)ccc23)CC[C@@H]1C(=O)N1CCn2c(nnc2C(F)(F)F)C1` [Example 32, ((3S,4S)-1-(7,8-dichloroquinolin-4-yl)-3-methylpiperidin-4-yl)(3-(trifluoromethyl)-5,6-dihydro-[1,2,4]triazolo[4,3-a]pyrazin-7(8H)-yl)methanone], for which the IC50 stood at 111 nM. This IC50 is about 3.3-fold lower than that of the molecule before. On to `C[C@@H]1CN(c2ccnc3cc(OCC4CC4)ccc23)CC[C@@H]1C(=O)N1CCn2c(nnc2C(F)(F)F)C1` [Example 53, {(3S,4S)-1-[7-(cyclopropylmethoxy)quinolin-4-yl]-3-methylpiperidin-4-yl}[3-(trifluoromethyl)-5,6-dihydro[1,2,4]triazolo[4,3-a]pyrazin-7(8H)-yl]methanone], for which inhibition was half-maximal at 3.6 nM (IC50). Consider `C[C@@H]1CN(c2ccnc3cc(OC(F)F)ccc23)CC[C@@H]1C(=O)N1CCn2c(nnc2C(F)(F)F)C1` [Example 33, {(3S,4S)-1-[7-(difluoromethoxy)quinolin-4-yl]-3-methylpiperidin-4-yl}[3-(trifluoromethyl)-5,6-dihydro[1,2,4]triazolo[4,3-a]pyrazin-7(8H)-yl]methanone], for which the IC50 worked out at 8.3 nM.

On to `C[C@@H]1CN(c2c(Cl)cnc3cc(F)ccc23)CC[C@@H]1C(=O)N1CCn2c(nnc2C(F)(F)F)C1` [Example 4, ((3S,4S)-1-(3-chloro-7-fluoroquinolin-4-yl)-3-methylpiperidin-4-yl)(3-(trifluoromethyl)-5,6-dihydro-[1,2,4]triazolo[4,3-a]pyrazin-7(8H)-yl)methanone], for which it took 0.6 nM to reach half-maximal inhibition (IC50). In the case of `C[C@@H]1CN(c2c(Cl)cnc3cc(-c4ncco4)ccc23)CC[C@@H]1C(=O)N1CCn2c(nnc2C(F)(F)F)C1` [Example 76, ((3S,4S)-1-(3-chloro-7-(oxazol-2-yl)quinolin-4-yl)-3-methylpiperidin-4-yl)(3-(trifluoromethyl)-5,6-dihydro-[1,2,4]triazolo[4,3-a]pyrazin-7(8H)-yl)methanone], the IC50 was 0.7 nM. The IC50 values of the last two molecules are within 1.5-fold of each other. On to `COc1ccc2c(N3CC[C@H](C(=O)N4CCn5c(nnc5C(F)(F)F)C4)[C@H](C)C3)c(Cl)cnc2c1F` [Example 41, [(3S,4S)-1-(3-chloro-8-fluoro-7-methoxyquinolin-4-yl)-3-methylpiperidin-4-yl][3-(trifluoromethyl)-5,6-dihydro[1,2,4]triazolo[4,3-a]pyrazin-7(8H)-yl]methanone], for which the IC50 was found to be 0.38 nM. Under `Cc1ccc2c(N3CC[C@H](C(=O)N4CCn5c(nnc5C(F)(F)F)C4)[C@H](C)C3)ccnc2n1` [Example 27, [(3S,4S)-3-methyl-1-(7-methyl-1,8-naphthyridin-4-yl)piperidin-4-yl][3-(trifluoromethyl)-5,6-dihydro[1,2,4]tria-zolo[4,3-a]pyrazin-7(8H)-yl]methanone] stands 6700 nM.
